Data on 3 molecules can be found in PubChem BioAssay AID1259407 (Chemical Carcinogenesis Research Information System (CCRIS), 2018).

This data set has as its system CCRIS mutagenicity, Ames/micronucleus/aberration tests. The data set can be described thus: CCRIS mutagenicity studies.
Where [1] appears, read: Test System: AMES SALMONELLA TYPHIMURIUM, Strain/Indicator: TA98, Metabolic Activation: NONE, Method: PREINCUBATION

Calls of active or inactive are those of the source. How the calls were made is not given here.

As to `[N-]=[N+]=[N-]`, the mutagenic call runs as follows: (Test System: AMES SALMONELLA TYPHIMURIUM, Strain/Indicator: TA97, Metabolic Activation: NONE, Method: STANDARD PLATE) “inactive; negative”; (Test System: AMES SALMONELLA TYPHIMURIUM, Strain/Indicator: TA97, Metabolic Activation: RAT, LIVER, S-9, AROCLOR 1254, Method: STANDARD PLATE) “inactive; negative”; (Test System: AMES SALMONELLA TYPHIMURIUM, Strain/Indicator: TA98, Metabolic Activation: HAMSTER, LIVER, S-9, AROCLOR 1254 (10%), Method: PREINCUBATION) “inactive; negative”; under setting [1], “inactive; negative”; (Test System: AMES SALMONELLA TYPHIMURIUM, Strain/Indicator: TA98, Metabolic Activation: NONE, Method: SPIRAL ASSAY) “inactive; negative”; (Test System: AMES SALMONELLA TYPHIMURIUM, Strain/Indicator: TA98, Metabolic Activation: NONE, Method: STANDARD PLATE) “inactive; negative”. The mutagenic call is “active; positive” (Test System: AMES SALMONELLA TYPHIMURIUM, Strain/Indicator: TA98, Metabolic Activation: RAT, LIVER, S-9, ACRYLAMIDE, Method: STANDARD PLATE); “inactive; negative” (Test System: AMES SALMONELLA TYPHIMURIUM, Strain/Indicator: TA98, Metabolic Activation: RAT, LIVER, S-9, AROCLOR 1254 (10%), Method: PREINCUBATION); “inactive; negative” (Test System: AMES SALMONELLA TYPHIMURIUM, Strain/Indicator: TA98, Metabolic Activation: RAT, LIVER, S-9, AROCLOR 1254, Method: SPIRAL ASSAY); “inactive; negative” (Test System: AMES SALMONELLA TYPHIMURIUM, Strain/Indicator: TA98, Metabolic Activation: RAT, LIVER, S-9, AROCLOR 1254, Method: STANDARD PLATE); “active; positive” (Test System: AMES SALMONELLA TYPHIMURIUM, Strain/Indicator: TA100, Metabolic Activation: HAMSTER, LIVER, S-9, AROCLOR 1254 (10%), Method: PREINCUBATION); “active; positive” (Test System: AMES SALMONELLA TYPHIMURIUM, Strain/Indicator: TA100, Metabolic Activation: NONE, Method: PREINCUBATION). For the same molecule, the mutagenic call runs as follows: (Test System: AMES SALMONELLA TYPHIMURIUM, Strain/Indicator: TA100, Metabolic Activation: NONE, Method: SPIRAL ASSAY) “active; positive”; (Test System: AMES SALMONELLA TYPHIMURIUM, Strain/Indicator: TA100, Metabolic Activation: RAT, LIVER, S-9, ACRYLAMIDE, Method: STANDARD PLATE) “active; positive”; (Test System: AMES SALMONELLA TYPHIMURIUM, Strain/Indicator: TA100, Metabolic Activation: RAT, LIVER, S-9, AROCLOR 1254 (10%), Method: PREINCUBATION) “active; positive”; (Test System: AMES SALMONELLA TYPHIMURIUM, Strain/Indicator: TA100, Metabolic Activation: RAT, LIVER, S-9, AROCLOR 1254, Method: SPIRAL ASSAY) “active; positive”; (Test System: AMES SALMONELLA TYPHIMURIUM, Strain/Indicator: TA100, Metabolic Activation: RAT, LIVER, S-9, PCB, Method: PREINCUBATION) “active; positive”; (Test System: AMES SALMONELLA TYPHIMURIUM, Strain/Indicator: TA1530, Metabolic Activation: NONE, Method: STANDARD PLATE) “active; positive”. Also, the mutagenic call by setting is: (Test System: AMES SALMONELLA TYPHIMURIUM, Strain/Indicator: TA1535, Metabolic Activation: HAMSTER, LIVER, S-9, AROCLOR 1254 (10%), Method: PREINCUBATION) “active; positive”; (Test System: AMES SALMONELLA TYPHIMURIUM, Strain/Indicator: TA1535, Metabolic Activation: NONE, Method: PREINCUBATION) “active; positive”; (Test System: AMES SALMONELLA TYPHIMURIUM, Strain/Indicator: TA1535, Metabolic Activation: NONE, Method: SPIRAL ASSAY) “active; positive”; (Test System: AMES SALMONELLA TYPHIMURIUM, Strain/Indicator: TA1535, Metabolic Activation: NONE, Method: STANDARD PLATE) “active; positive”; (Test System: AMES SALMONELLA TYPHIMURIUM, Strain/Indicator: TA1535, Metabolic Activation: RAT, LIVER, S-9, AROCLOR 1254 (10%), Method: PREINCUBATION) “active; positive”; (Test System: AMES SALMONELLA TYPHIMURIUM, Strain/Indicator: TA1535, Metabolic Activation: RAT, LIVER, S-9, AROCLOR 1254, Method: SPIRAL ASSAY) “active; positive”. The mutagenic call runs as follows: (Test System: AMES SALMONELLA TYPHIMURIUM, Strain/Indicator: TA1535, Metabolic Activation: RAT, LIVER, S-9, AROCLOR 1254, Method: STANDARD PLATE) “active; positive”; (Test System: AMES SALMONELLA TYPHIMURIUM, Strain/Indicator: TA1537, Metabolic Activation: HAMSTER, LIVER, S-9, AROCLOR 1254 (10%), Method: PREINCUBATION) “inactive; negative”; (Test System: AMES SALMONELLA TYPHIMURIUM, Strain/Indicator: TA1537, Metabolic Activation: NONE, Method: PREINCUBATION) “inactive; negative”; (Test System: AMES SALMONELLA TYPHIMURIUM, Strain/Indicator: TA1537, Metabolic Activation: NONE, Method: STANDARD PLATE) “inactive; negative”; (Test System: AMES SALMONELLA TYPHIMURIUM, Strain/Indicator: TA1537, Metabolic Activation: RAT, LIVER, S-9, AROCLOR 1254 (10%), Method: PREINCUBATION) “inactive; negative”; (Test System: AMES SALMONELLA TYPHIMURIUM, Strain/Indicator: TA1537, Metabolic Activation: RAT, LIVER, S-9, AROCLOR 1254, Method: STANDARD PLATE) “inactive; negative”. Also, the mutagenic call was “inactive; negative” (Test System: AMES SALMONELLA TYPHIMURIUM, Strain/Indicator: TA1538, Metabolic Activation: HAMSTER, LIVER, S-9, AROCLOR 1254 (10%), Method: PREINCUBATION); “inactive; negative” (Test System: AMES SALMONELLA TYPHIMURIUM, Strain/Indicator: TA1538, Metabolic Activation: NONE, Method: PREINCUBATION); “inactive; negative” (Test System: AMES SALMONELLA TYPHIMURIUM, Strain/Indicator: TA1538, Metabolic Activation: RAT, LIVER, S-9, AROCLOR 1254 (10%), Method: PREINCUBATION); “active; positive (at higher doses)” (Test System: Ames Salmonella typhimurium, Strain/Indicator: TA1975P, Metabolic Activation: None, Method: Preincubation); “inactive; negative” (Test System: E. COLI, Strain/Indicator: AB2500, Metabolic Activation: NONE, Method: STANDARD PLATE); “inactive; negative” (Test System: E. COLI, Strain/Indicator: WP2 UVRA, Metabolic Activation: HAMSTER, LIVER, S-9, AROCLOR 1254, Method: STANDARD PLATE). The mutagenic call (Test System: E. COLI, Strain/Indicator: WP2 UVRA, Metabolic Activation: HAMSTER, LIVER, S-9, Method: STANDARD PLATE) was “inactive; negative”; the mutagenic call (Test System: E. COLI, Strain/Indicator: WP2 UVRA, Metabolic Activation: MOUSE, LIVER, S-9, AROCLOR 1254, Method: STANDARD PLATE) was “inactive; negative”; the mutagenic call (Test System: E. COLI, Strain/Indicator: WP2 UVRA, Metabolic Activation: MOUSE, LIVER, S-9, Method: STANDARD PLATE) is “inactive; negative”; the mutagenic call (Test System: E. COLI, Strain/Indicator: WP2 UVRA, Metabolic Activation: NONE, Method: STANDARD PLATE) was “inactive; negative”; the mutagenic call (Test System: E. COLI, Strain/Indicator: WP2 UVRA, Metabolic Activation: RAT, LIVER, S-9, AROCLOR 1254, Method: STANDARD PLATE) is “inactive; negative”; the mutagenic call (Test System: E. COLI, Strain/Indicator: WP2 UVRA, Metabolic Activation: RAT, LIVER, S-9, Method: STANDARD PLATE) was “inactive; negative”. The mutagenic call (Test System: MOUSE LYMPHOMA, Strain/Indicator: L5178Y (TK+/TK-), Metabolic Activation: NONE, Method: SUSPENSION/PLATE) was “active; positive”.

Consider `CCc1c(O)c(=O)ccn1CC`, for which the mutagenic call is “active; positive” (Test System: Mouse lymphoma, Strain/Indicator: L5178Y (tk+/tk-), Metabolic Activation: None, Method: Suspension/plate) and “active; positive” (Test System: Mouse lymphoma, Strain/Indicator: L5178Y (tk+/tk-), Metabolic Activation: Rat, Liver, S-9, Aroclor 1254, Method: Suspension/plate).

Regarding `O=S(=O)(O)Oc1cccc2c1cc1ccc3cccc4ccc2c1c34`, the mutagenic call was “inactive; negative” under setting [1] and “inactive; negative” (Test System: AMES SALMONELLA TYPHIMURIUM, Strain/Indicator: TA98, Metabolic Activation: RAT, LUNG, S-9, Method: PREINCUBATION).
